Test results taken from publication PMC11134608, “UBR5 forms ligand-dependent complexes on chromatin to regulate nuclear hormone receptor stability” (Molecular cell, 2023).
Where two headings read alike, the source gives them in different places.

Assays:
[1] = tested on: ER reporter (E3 ligase dependence); experiment: Targeted CRISPR screens, ER reporter K562 cells: E3 ligase used; type: cell-based, human; details: for E3 ligase used for ER degradation: K562 ER reporter, CRISPR screen; for E3 Ligase (Table S2): Supplemental Table S2
Experimental: To characterize the UPS pathway components involved in SERD-induced ER degradation, we performed CRISPR screens with our ER reporter in the presence multiple SERDs: fulvestrant, GDC-0927, elacestrant, giredestrant, camizestrant, amcenestrant, AZD-9496, brilanestrant, and LSZ-102. […] Taken together, these findings indicate that different classes of SERDs engage distinct ubiquitin ligases and degradation pathways to target ER.
The UPS and tiling CRISPR functional genomics screen was performed following previously described methods.[22] Briefly, the UPS CRISPR library targets 713 E1, E2, E3 ubiquitin ligases, and deubiquitinases and includes controls genes with a total of 2852 guide RNAs, cloned into the pXPR003 backbone. The UBR5 Tiling screen was created by CRISPR-SURF.[29] Viruses were produced in a T-175 format and ten percent by volume of the library virus was added to reporter cell lines in triplicates for transduction. Transduced cells were allowed to recover and expand for nine days, then treated with indicated ligand. Top and bottom 5% of cells by GFP signal were sorted for a total of at least 100,000 cells per replicate. Samples were processed as previously described.[22]
Reporter cell lines were treated with ATRA or 9-cis RA, and then sorted into four populations by eGFP/mCherry fluorescence ratios (Gates A-D), corresponding to the bottom and top 5–10% respectively (Figure S1D).[22],[23] Sorted cells were pelleted, lysed, and processed according to previous studies.[22] Briefly sgRNAs were amplified in two PCRs via Titanium Taq (Takara Bio 639210), Titanium Taq Buffer and 800uM dNTP mix and eight staggered forward primers. The first PCR also contained 200 nM SBS3-Stagger-pXPR003 forward primer and 200 nM SBS12-pXPR003 reverse primer (cycles: 5 minutes at 94°C, 15 × (30 sec at 94°C, 15 sec at 58°C, 30 sec at 72°C), 2 minutes at 72°C). Illumina adapters and barcodes were added in the second PCR (200 nM P5-SBS3 forward primer, 200 nM P7-barcode-SBS12 reverse primer). Samples were pooled and purified by agarose gel-electrophoresis (Qiagen) and NaOAc/isopropanol precipitation. Amplified guides were quantified by next-generation sequencing (Genomics Platform, Broad Institute), and analyzed for enrichment in Gate A over Gate D, representing degradation rescue.

[2] = tested on: ER reporter; experiment: ER reporter degradation; type: cell-based, human; details: 1 μM (legend, SERDs)
Experimental: Reporter cell lines were seeded in triplicate at a density of 1 million cells/ml in 100 μl per well in a 96 well plate and measured once. Ligand was added by Digital Dispenser (Tecan), and incubated at 37°C for the appropriate time before reading by flow cytometry. Cells were analyzed for GFP vs mCherry expression. GFP expression was normalized to mCherry signal and ligand treatments were compared to DMSO controls.

[3] = tested on: ER; experiment: ER degradation after RNF111 or UBR5 knockdown (reporter K562; T47D western); type: cell-based, human; details: K562 ER-GFP, shUBR5 / sgRNF111, Figure S8C, D
Experimental: (§1) Cells were analyzed for GFP vs mCherry expression.
Protein concentration was quantified via Pierce BCA Protein Assay Kit (ThermoFisher, 23225), and equal amounts of lysates were run on either SDS-PAGE 3–8% Tris-Acetate or 4–12% Bis-Tris Protein Gels (NuPAGE, ThermoFisher), then transferred to a PVDF membrane (Biorad, Wet Transfer System). Membranes were blocked for 30 minutes to 1 hour at room temperature in Odyssey Blocking Buffer/PBS (LI-COR Biosciences), and incubated with primary antibodies at 4 °C overnight. Stained membranes were washed three times in Tris-buffered saline with Tween 20 (TBS-T) and incubated for 1 hour at room temperature with secondary IRDye-conjugated antibodies (LI-COR Biosciences). Membranes were washed three times in TBS-T before imaging (Odyssey Imaging System, LI-COR Biosciences).

[4] = tested on: progesterone receptor (PGR); experiment: PGR reporter degradation in U937; type: cell-based, human; details: for PGR degradation, significance: R5020 vs DMSO, n = 3
Experimental: Additional NRs that have well-characterized ligand-induced degradation include vitamin D receptor (VDR),[46] progesterone receptor (PGR),[47] and thyroid receptor beta (THRB).[7]
as §1

[5] = tested on: HR+ HER2- advanced breast cancer; details: cited from earlier work; for clinical trial outcome, phase II: second-line treatment
Description: page 11: Supplemental Table S2: Clinical Development of Selective Estrogen Receptor Degraders (SERDs), related to Figure 6 Clinical Development Status for HR+ HER2- Advanced Compound Side Chain E3 Ligase Breast Cancer Treatment Fulvestrant Long Alkyl RNF111 FDA approved for first-line and second-line treatments1,2 FDA approved for second-line, ESR1-mutated disease Elacestrant (RAD1901) Basic Amino RNF111 treatment3,4; Ongoing phase III trial for first-line treatment (NCT05512364) Ongoing Phase III trial for first-line treatment Camizestrant (AZD9833) Basic Amino RNF111 (NCT04711252, NCT0496493 ...

[6] = tested on: thyroid receptor beta (THRB); experiment: THRB reporter degradation in U937; type: cell-based, human; details: for THRB degradation, significance: T3 vs DMSO, n = 3
Experimental: as §1

SMILES	E3 ligase used for ER degradation [1]	E3 Ligase (Table S2) [1]	ER reporter degradation [2]	regulated class of ER degradation (RNF111 or UBR5) [3]	also measured
O=C1CC[C@H](N2Cc3cc(N4CCN(CC5CCN(c6ccc([C@@H]7c8ccc(O)cc8CC[C@@H]7c7ccccc7)cc6)CC5)CC4)ccc3C2=O)C(=O)N1 [ARV-471]	Cereblon (CRBN)	CRBN	induced ER reporter degradation	–	–
C[C@@H]1Cc2c([nH]c3ccccc23)[C@@H](c2c(F)cc(/C=C/C(=O)O)cc2F)N1CC(C)(C)F [AZD-9496]	required UBR5 for degradation	UBR5	induced ER reporter degradation	UBR5 Regulated	–
CCN(CCCCCOCC(=O)N[C@H](C(=O)N1C[C@H](O)C[C@H]1C(=O)N[C@@H](C)c1ccc(-c2scnc2C)cc1)C(C)(C)C)CCOc1ccc(C(=O)c2c(-c3ccc(O)cc3)sc3cc(O)ccc23)cc1 [ERD-308]	von Hippel-Lindau (VHL)	VHL	induced ER reporter degradation	–	–
CC1=C(c2cccc(O)c2)[C@H](c2ccc(OCCN3CC(CF)C3)cc2)Oc2ccc(O)cc21 [GDC-0927]	employed a different E3 ligase, RNF111	RNF111	induced ER reporter degradation	–	–
CC(F)(F)c1cc(F)ccc1-c1sc2cc(O)ccc2c1Oc1ccc(/C=C/C(=O)O)cc1 [LSZ-102]	required UBR5 for degradation	UBR5	induced ER reporter degradation	UBR5 Regulated	–
CCC(=O)[C@@]1(C)CC[C@H]2[C@@H]3CCC4=CC(=O)CCC4=C3CC[C@@]21C [R5020]	–	–	–	–	PGR degradation, significance ([4]; LUC1 shRNA): *** (***p<0.0005); PGR degradation, significance ([4]; LUC2 shRNA): * (*p<0.05); PGR reporter degradation ([4]; U937, R5020): confirmed degradation; effect of UBR5 shRNAs on PGR degradation ([4]; U937, R5020): rescued degradation
O=C(O)c1ccc2c(c1)CCCC(c1ccc(Cl)cc1Cl)=C2c1ccc(O[C@H]2CCN(CCCF)C2)cc1 [amcenestrant]	employed a different E3 ligase, RNF111	RNF111	induced ER reporter degradation	RNF111 Regulated	clinical trial outcome, phase III ([5]; amcenestrant, first-line treatment, NCT04478266, ref 7 (supplement)): Failed primary endpoint phase III trial for first-line; clinical trial outcome, phase II ([5]; amcenestrant, NCT04059484, ref 8 (supplement)): Failed primary endpoint in
C[C@@H]1Cc2c(ccc3[nH]ncc23)[C@@H](c2ccc(NC3CN(CCCF)C3)cn2)N1CC(F)(F)F [camizestrant]	employed a different E3 ligase, RNF111	RNF111	induced ER reporter degradation	RNF111 Regulated	clinical trial outcome, phase II ([5]; camizestrant, NCT04214288, ref 5 (supplement)): Successful phase II trial
N[C@@H](Cc1cc(I)c(Oc2cc(I)c(O)c(I)c2)c(I)c1)C(=O)O [levothyroxine [T3], levothyroxine]	–	–	–	–	THRB degradation, significance ([6]; LUC1 shRNA): ** (**p<0.005); THRB degradation, significance ([6]; LUC2 shRNA): ** (**p<0.005); THRB reporter degradation ([6]; U937, T3): confirmed degradation; UBR5 dependence of THRB degradation ([6]; U937, T3): not dependent on UBR5; THRB degradation, significance ([6]; UBR5-1 shRNA): ** (**p<0.005); THRB degradation, significance ([6]; UBR5-2 shRNA): ** (**p<0.005)
